Test results from ChEMBL document CHEMBL1949665, “Pyrazolo[1,5-a]pyridines as p38 kinase inhibitors” (Org Lett, 2005).

Assay: Inhibition of p38 kinase

| Compound | IC50 |
| --- | --- |
| OCCCNc1nccc(-c2c(-c3cccc(C(F)(F)F)c3)nn3cc(C(F)(F)F)ccc23)n1 | 200 nM |
| CN(C)C(=O)c1ccc2c(-c3ccnc(NC4CC4)n3)c(-c3cccc(C(F)(F)F)c3)nn2c1 | 60 nM |
| NC(=O)c1ccc2c(-c3ccnc(NC4CC4)n3)c(-c3ccc(F)cc3)nn2c1 | 20 nM |
| Cc1cccc2c(-c3ccncn3)c(-c3ccc(F)cc3)nn12 | 500 nM |
| N#Cc1ccc2c(-c3ccnc(NC4CC4)n3)c(-c3ccc(F)cc3)nn2c1 [GW561436X] | 30 nM |
| CN(C)C(=O)c1ccc2c(-c3ccnc(NC4CC4)n3)c(-c3ccc(F)cc3)nn2c1 | 60 nM |
| CN1CCN(CCCNc2nccc(-c3c(-c4ccc(F)cc4)nn4cc(C(F)(F)F)ccc34)n2)CC1 | 130 nM |
| CN(C)CCCNc1nccc(-c2c(-c3ccc(F)cc3)nn3cc(C(F)(F)F)ccc23)n1 | 630 nM |
| Nc1nccc(-c2c(-c3ccc(F)cc3)nn3ccccc23)n1 | 100 nM |
| CN1CCN(CCCNc2nccc(-c3c(-c4ccc(C(F)(F)F)cc4)nn4cc(C(F)(F)F)ccc34)n2)CC1 | 400 nM |
| CCCCNc1cc(-c2c(-c3ccc(F)cc3)nn3c(OC)cccc23)ccn1 | 60 nM |
| CC(C)Nc1nccc(-c2c(-c3ccc(F)cc3)nn3cc(C(F)(F)F)ccc23)n1 | 40 nM |
| CCCCNc1cc(-c2c(-c3ccc(F)cc3)nn3cccc(F)c23)ccn1 | 160 nM |
| CN(C)CCCNc1nccc(-c2c(-c3ccc(C(F)(F)F)cc3)nn3cc(C(F)(F)F)ccc23)n1 | 1250 nM |
| Nc1nccc(-c2c(-c3ccc(F)cc3)nn3cc(C(F)(F)F)ccc23)n1 [GW568326X] | 200 nM |

Continued by falling IC50, values first:

| IC50 | Compound |
| --- | --- |
| 1000 nM | CN(C)c1cc(-c2c(-c3ccc(F)cc3)nn3ccccc23)ccn1 |
| 630 nM | Fc1ccc(-c2nn3ccccc3c2-c2ccncn2)cc1 |
| 160 nM | Fc1ccc(-c2nn3ccccc3c2-c2ccnc(Nc3ccccc3)c2)cc1 |
| 160 nM | Fc1ccc(-c2nn3ccccc3c2-c2ccnc(NCc3ccccc3)c2)cc1 |
| 160 nM | CSc1cccc2c(-c3ccncn3)c(-c3ccc(F)cc3)nn12 |
| 100 nM | COc1cccc2c(-c3ccncc3)c(-c3ccc(F)cc3)nn12 |
| 100 nM | CN(C)CCCNc1nccc(-c2c(-c3cccc(Cl)c3)nn3cc(C(F)(F)F)ccc23)n1 |
| 100 nM | Nc1cc(-c2c(-c3ccc(F)cc3)nn3cc(C(F)(F)F)ccc23)ccn1 |
| 80 nM | CC(C)Nc1cc(-c2c(-c3ccc(F)cc3)nn3cc(C(N)=O)ccc23)ccn1 |
| 60 nM | OCCCNc1nccc(-c2c(-c3ccc(F)cc3)nn3cc(C(F)(F)F)ccc23)n1 |
| 50 nM | N#Cc1ccc2c(-c3ccnc(NC4CC4)c3)c(-c3ccc(F)cc3)nn2c1 |
| 40 nM | CN1CCN(CCCNc2nccc(-c3c(-c4ccc(F)cc4)nn4cc(C(N)=O)ccc34)n2)CC1 |
| 40 nM | CCCCNc1nccc(-c2c(-c3ccc(F)cc3)nn3c(OCCF)cccc23)n1 |
| 40 nM | OCCCNc1nccc(-c2c(-c3ccc(F)cc3)nn3cc(Cl)ccc23)n1 |
| 10 nM | NC(=O)c1ccc2c(-c3ccnc(NCCCO)n3)c(-c3ccc(F)cc3)nn2c1 [GW581744X] |
